Measurements: patent US20260028336A1 (Arcus Biosciences, Inc., priority 2022, published 2026)

Legend:
Jurkat cells = test: IL-2 secretion assay in CD3/CD28-activated Jurkat cells (AlphaLISA); format: cell-based; settings: Homo sapiens, CD3/CD28 T Cell Activator, 24 h, IL-2 AlphaLISA
Summary of the method: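 Jurkat cells (50,000/well) were preincubated 1 h at 37° C with compound in a 16-point 1:2 series spanning 10 μM to 300 pM final. Cells were then activated with CD3/CD28 T cell activator, and secreted IL-2 was read by AlphaLISA. EC50 came from 4-parameter logistic fits.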

Cbl-b = molecular target: T1, Cbl-b (Homo sapiens, UniProt Q13191); test: Cbl-b probe displacement HTRF binding assay; settings: 0.4 nM biotinylated Cbl-b, 150 nM BODIPY probe
T1 construct: biotin (biotinylated)
T1 sequence (Q13191 whole entry, species assumed): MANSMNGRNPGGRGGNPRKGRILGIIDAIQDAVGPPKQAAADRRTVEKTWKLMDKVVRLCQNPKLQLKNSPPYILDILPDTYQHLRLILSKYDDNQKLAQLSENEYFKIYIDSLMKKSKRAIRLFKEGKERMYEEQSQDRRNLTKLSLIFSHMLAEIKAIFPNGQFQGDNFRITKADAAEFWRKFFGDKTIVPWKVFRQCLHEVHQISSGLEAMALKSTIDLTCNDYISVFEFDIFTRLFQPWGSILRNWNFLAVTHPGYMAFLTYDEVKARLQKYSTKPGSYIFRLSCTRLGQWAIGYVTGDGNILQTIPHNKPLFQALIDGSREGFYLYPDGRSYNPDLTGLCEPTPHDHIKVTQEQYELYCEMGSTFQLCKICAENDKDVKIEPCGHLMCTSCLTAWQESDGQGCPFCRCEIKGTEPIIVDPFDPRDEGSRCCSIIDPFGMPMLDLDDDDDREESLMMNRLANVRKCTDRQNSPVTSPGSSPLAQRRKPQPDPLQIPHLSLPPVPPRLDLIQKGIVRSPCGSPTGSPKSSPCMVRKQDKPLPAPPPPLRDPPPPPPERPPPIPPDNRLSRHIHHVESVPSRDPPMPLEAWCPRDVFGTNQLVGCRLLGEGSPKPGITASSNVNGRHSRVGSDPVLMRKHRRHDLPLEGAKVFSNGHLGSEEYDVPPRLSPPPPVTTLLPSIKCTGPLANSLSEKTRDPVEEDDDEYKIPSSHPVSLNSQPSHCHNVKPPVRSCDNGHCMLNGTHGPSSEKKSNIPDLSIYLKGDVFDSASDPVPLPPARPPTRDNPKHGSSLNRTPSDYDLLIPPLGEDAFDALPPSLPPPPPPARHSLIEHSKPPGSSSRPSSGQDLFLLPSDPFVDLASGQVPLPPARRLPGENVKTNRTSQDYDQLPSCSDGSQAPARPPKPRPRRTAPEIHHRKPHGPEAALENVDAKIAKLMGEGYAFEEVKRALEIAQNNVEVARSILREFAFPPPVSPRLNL
Summary of the method: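 Biotinylated Cbl-b was preincubated with compound for 60 min at room temperature in HEPES/NaCl/Triton/TCEP/BSA buffer. BODIPY probe was added for 15 min, followed by streptavidin-terbium, and the HTRF signal was read. Displacement was normalised to DMSO and no-protein controls, and affinity was obtained from a four-parameter dose-response fit.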

| Compound | EC50 (Jurkat cells) [nM] | IC50 (Cbl-b) [nM] |
| --- | --- | --- |
| O=c1c2[nH]c(CNCC3(O)CCC3)cc2c(C2CC2)cn1-c1cccc([C@]2(c3nncn3C(F)F)C[C@H](OC(F)F)C2)c1 [Example 152, 4-cyclopropyl-2-({[(1-hydroxycyclobutyl)methyl]amino}methyl)-6-(m-{(1r,3r)-3-difluoromethoxy-1-[4-(difluoromethyl)-4H-1,2,4-triazol-3-yl]cyclobutyl}phenyl)-1,6-dihydro-1,6-diaza-7-indenone] | 1000 to 5000 | < 100 |
| Cn1cnnc1CC1(c2cccc(-n3cc(C4CC4)c4cc(CN5CCC6(CC6)C5)[nH]c4c3=O)c2)COC1 [Example 76, 2-({5-azaspiro[2.4]heptan-5-yl}methyl)-4-cyclopropyl-6-(3-{3-[(4-methyl-4H-1,2,4-triazol-3-yl)methyl]oxetan-3-yl}phenyl)-1H,6H,7H-pyrrolo[2,3-c]pyridin-7-one] | 100 to 1000 | < 100 |
| CC1CC(c2cccc(-n3cc(C4CC4)c4c(C#N)c(CN5CCC[C@H](C)C5)[nH]c4c3=O)c2)(c2nncn2C)C1 (mixture of isomers) [Example 134, 4-Cyclopropyl-2-{[(3S)-3-methylpiperidin-1-yl]methyl}-7-oxo-6-{3-[(1R,3S)-3-methyl-1-(4-methyl-4H-1,2,4-triazol-3-yl)cyclobutyl]phenyl}-1H,6H,7H-pyrrolo[2,3-c]pyridine-3-carbonitrile] | < 100 | < 100 |
| CC1CC(c2cccc(-n3cc(C4CC4)c4cc(CN5CCCC(F)(F)C5)[nH]c4c3=O)c2)(c2nncn2C)C1 (stereo not drawn) [Example 66, 4-cyclopropyl-2-[(3,3-difluoropiperidin-1-yl)methyl]-6-{3-[(1r)-3-methyl-1-(4-methyl-4H-1,2,4-triazol-3-yl)cyclobutyl]phenyl}-1H,6H,7H-pyrrolo[2,3-c]pyridin-7-one] | 1000 to 5000 | 100 to 1000 |
| C[C@H]1CCCN(Cc2cc3c(C4CC4)cn(-c4cccc(C5(Cn6cccn6)CC(F)(F)C5)c4)c(=O)c3[nH]2)C1 [Example 124] | 100 to 1000 | 100 to 1000 |
| C[C@H]1CCCN(Cc2cc3c(C4CC4)cn(-c4cccc(C5(c6nnco6)CC(F)(F)C5)c4)c(=O)c3[nH]2)C1 [Example 121, 4-cyclopropyl-6-[3-[3,3-difluoro-1-(1,3,4-oxadiazol-2-yl)cyclobutyl]phenyl]-2-[[(3S)-3-methylpiperidin-1-yl]methyl]-1H-pyrrolo[2,3-c]pyridin-7-one] | 100 to 1000 | 100 to 1000 |
| CC1CC(c2cccc(-n3cc(C4CC4)c4cc(CN5CCO[C@H](C)C5)[nH]c4c3=O)c2)(c2nncn2C)C1 (stereo partly drawn) [Example 45, 4-cyclopropyl-6-{3-[3-methyl-1-(4-methyl-4H-1,2,4-triazol-3-yl)cyclobutyl]phenyl}-2-{[(2R)-2-methylmorpholin-4-yl]methyl}-1H,6H,7H-pyrrolo[2,3-c]pyridin-7-one] | < 100 | < 100 |
| C[C@@H]1CN(Cc2nc3c(C(F)(F)F)cn(-c4cccc(C5(c6nncn6C)CC(F)(F)C5)c4)c(=O)c3[nH]2)CCO1 [Example 114, 5-[3-[3,3-difluoro-1-(4-methyl-1,2,4-triazol-3-yl)cyclobutyl]phenyl]-2-[[(2R)-2-methylmorpholin-4-yl]methyl]-7-(trifluoromethyl)-3H-imidazo[4,5-c]pyridin-4-one] | > 5000 | 100 to 1000 |
| CC1CC(c2cccc(-n3cc(C4CC4)c4cc(CNCCOC(F)(F)F)[nH]c4c3=O)c2)(c2nncn2C)C1 (stereo not drawn) [Example 46, 4-cyclopropyl-6-{3-[3-methyl-1-(4-methyl-4H-1,2,4-triazol-3-yl)cyclobutyl]phenyl}-2-({[2-(trifluoromethoxy)ethyl]amino}methyl)-1H,6H,7H-pyrrolo[2,3-c]pyridin-7-one] | 100 to 1000 | < 100 |
| CO[C@H]1C[C@](c2cccc(-n3cc(C4CC4)c4cc(CN5CCC[C@H](C)C5)[nH]c4c3=O)c2)(c2nncn2C)C1 [Example 101, trans-4-cyclopropyl-6-[3-[3-methoxy-1-(4-methyl-1,2,4-triazol-3-yl)cyclobutyl]phenyl]-2-[[(3S)-3-methylpiperidin-1-yl]methyl]-1H-pyrrolo[2,3-c]pyridin-7-one] | < 100 | < 100 |
| Cn1cnnc1[C@]1(c2cccc(-n3cc(CO)c4cn[nH]c4c3=O)c2)C[C@H](C)C1 [Example 142, 4-(Hydroxymethyl)-6-{3-[(1R,3S)-3-methyl-1-(4-methyl-4H-1,2,4-triazol-3-yl)cyclobutyl]phenyl}-1H,6H,7H-pyrazolo[3,4-c]pyridin-7-one] | > 5000 | 1000 to 5000 |
| CC1CC(c2cccc(-n3cc(C4CC4)c4c(-c5cnn(C)c5)c[nH]c4c3=O)c2)(c2nncn2C)C1 (mixture of isomers) [Example 131, 4-Cyclopropyl-3-(1-methyl-1H-pyrazol-4-yl)-6-{3-[(1R,3S)-3-methyl-1-(4-methyl-4H-1,2,4-triazol-3-yl)cyclobutyl]phenyl}-1H,6H,7H-pyrrolo[2,3-c]pyridin-7-one] | > 5000 | < 100 |
| Cn1cnnc1C1(c2cccc(-n3cc(C4CC4)c4cc(CNCC5(CO)CC5)[nH]c4c3=O)c2)CC(F)(F)C1 [Example 85, 4-cyclopropyl-6-{3-[3,3-difluoro-1-(4-methyl-4H-1,2,4-triazol-3-yl)cyclobutyl]phenyl}-2-[({[1-(hydroxymethyl)cyclopropyl]methyl}amino)methyl]-1H,6H,7H-pyrrolo[2,3-c]pyridin-7-one] | 100 to 1000 | < 100 |
| Cn1cnnc1[C@]1(c2cccc(-n3cc(C(F)(F)F)c4cn[nH]c4c3=O)c2)C[C@H](C)C1 [Example 140, 6-{3-[(1R,3S)-3-Methyl-1-(4-methyl-4H-1,2,4-triazol-3-yl)cyclobutyl]phenyl}-4-(trifluoromethyl)-1H,6H,7H-pyrazolo[3,4-c]pyridin-7-one] | 100 to 1000 | < 100 |
| CC1CC(c2cccc(-n3cc(C4CC4)c4cc(CN(C)C5CCCC5)[nH]c4c3=O)c2)(c2nncn2C)C1 (stereo not drawn) [Example 47, 2-{[cyclopentyl(methyl)amino]methyl}-4-cyclopropyl-6-{3-[3-methyl-1-(4-methyl-4H-1,2,4-triazol-3-yl)cyclobutyl]phenyl}-1H,6H,7H-pyrrolo[2,3-c]pyridin-7-one] | < 100 | < 100 |
| Cn1cnnc1C1(c2cccc(-n3cc(C4CC4)c4cc(CNCC5(O)CCC5)[nH]c4c3=O)c2)CC(F)(F)C1 [Example 83, 4-cyclopropyl-6-{3-[3,3-difluoro-1-(4-methyl-4H-1,2,4-triazol-3-yl)cyclobutyl]phenyl}-2-({[(1-hydroxycyclobutyl)methyl]amino}methyl)-1H,6H,7H-pyrrolo[2,3-c]pyridin-7-one] | 100 to 1000 | < 100 |
| Cn1cncc1-c1c[nH]c2c(=O)n(-c3cccc([C@]4(c5nncn5C)C[C@@H](C)C4)c3)cc(C3CC3)c12 (single isomer, unassigned) [Example 34] | 1000 to 5000 | < 100 |
| C[C@H]1CCCN(Cc2cc3c(C4CC4)cn(-c4cccc([C@]5(c6nncn6C(F)F)C[C@H](OC(F)F)C5)c4)c(=O)c3[nH]2)C1 [Example 151, 2—{[(S)-3-methyl-1-piperidyl]methyl}-4-cyclopropyl-6-(m-{(1r,3S)-3-difluoromethoxy-1-[4-(difluoromethyl)-4H-1,2,4-triazol-3-yl]cyclobutyl}phenyl)-1,6-dihydro-1,6-diaza-7-indenone] | < 100 | < 100 |
| C[C@H]1CCCN(Cc2cc3c(C4CC4)cn(-c4cccc(C5(Cn6nccn6)CC(F)(F)C5)c4)c(=O)c3[nH]2)C1 [Example 122, 4-cyclopropyl-6-[3-[3,3-difluoro-1-(triazol-2-ylmethyl)cyclobutyl]phenyl]-2-[[(3S)-3-methylpiperidin-1-yl]methyl]-1H-pyrrolo[2,3-c]pyridin-7-one] | 100 to 1000 | 100 to 1000 |
| CC1CC(c2cccc(-n3cc(C(=O)O)c4cn[nH]c4c3=O)c2)(c2nncn2C)C1 (mixture of isomers) [Example 141, 7-Oxo-6-{3-[(1R,3S)-3-methyl-1-(4-methyl-4H-1,2,4-triazol-3-yl)cyclobutyl]phenyl}-1H,6H,7H-pyrazolo[3,4-c]pyridine-4-carboxylic acid] | > 5000 | 1000 to 5000 |
| Cn1cnnc1[C@]1(c2cccc(-n3cc(C#N)c4cc[nH]c4c3=O)c2)C[C@H](C)C1 [Example 38, 7-oxo-6-{3-[(1r,3s)-3-methyl-1-(4-methyl-4H-1,2,4-triazol-3-yl)cyclobutyl]phenyl}-1H,6H,7H-pyrrolo[2,3-c]pyridine-4-carbonitrile] | 1000 to 5000 | < 100 |
| CCO[C@H]1C[C@](c2cccc(-n3cc(C4CC4)c4cc(CN5CCC[C@H](C)C5)[nH]c4c3=O)c2)(c2nncn2C)C1 [Example 98, trans-4-cyclopropyl-6-[3-[3-ethoxy-1-(4-methyl-1,2,4-triazol-3-yl)cyclobutyl]phenyl]-2-[[(3S)-3-methylpiperidin-1-yl]methyl]-1H-pyrrolo[2,3-c]pyridin-7-one] | < 100 | < 100 |
| CC1CC(c2cccc(-n3cc(C4CC4)c4cc(CNC5(CO)CCC5)[nH]c4c3=O)c2)(c2nncn2C)C1 (stereo not drawn) [Example 42, 4-cyclopropyl-2-({[1-(hydroxymethyl)cyclobutyl]amino}methyl)-6-{3-[3-methyl-1-(4-methyl-4H-1,2,4-triazol-3-yl)cyclobutyl]phenyl}-1H,6H,7H-pyrrolo[2,3-c]pyridin-7-one] | < 100 | < 100 |
| C[C@@H]1CN(Cc2cc3c(C4CC4)cn(-c4cccc(C5(c6nncn6C)CC(F)(F)C5)c4)c(=O)c3[nH]2)CCO1 [Example 94, 4-cyclopropyl-6-[3-[3,3-difluoro-1-(4-methyl-1,2,4-triazol-3-yl)cyclobutyl]phenyl]-2-[[(2R)-2-methylmorpholin-4-yl]methyl]-1H-pyrrolo[2,3-c]pyridin-7-one] | < 100 | < 100 |
